# Laboratory results published in patent US4515708A, “Corrosion inhibitors” (Exxon Research & Engineering Co., priority 1982, dated 1985).
# Read-outs that look alike come from different tables or passages of the source.
# Columns and labels:
# [1] = Solubility Test (35 wt% solution in isopropylalcohol shaken with water, brine or heptane); assay type: physicochemical
# Protocol: The active material under test was made up into a 35 wt% solution in isopropylalcohol (IPA). 0.3 ml of this solution was shaken with 10 ml of each of the liquids in which solubility is to be tested: water, 5 wt% NaCl solution (brine) and heptane. The mixture was observed after 30 minutes and 24 hours.
# [2] = Emulsion Test (3 wt% brine / heptane); assay type: physicochemical; set-up: Emulsion thickness after 30 mins: unit not given here; settings: for Time to break emulsion: 1 ml of 35 wt% IPA solution, 50 ml 3 wt% brine, 50 ml heptane; for Appearance after 30 mins, hydrocarbon: hydrocarbon layer; for Appearance after 30 mins, hydrocarbon / Appearance after 30 mins, water / Emulsion thickness after 30 mins: 50 ml 3 wt% brine/50 ml heptane; for Appearance after 30 mins, water: water layer
# Protocol: 1 ml of the solutions used for Test A was shaken with 50 ml of 3 wt% brine and 50 ml of heptane for 1 minute in a 150 ml bottle. The emulsion was observed, and the time noted for the emulsion to break and form a clean interface with clear liquid layers. If at 30 minutes this had not occurred, the appearance was recorded together with the thickness of any persisting emulsion.
# [3] = Corrosion Test 1 (dynamic wheel test; 3 wt% brine/Mentor 28; CO2 + H2S); settings: 24 h, 70° C.
# Protocol: (§1) For each compound three mild steel coupons (approximately 100 mm×12 mm×1.5 mm) were tested at each concentration. Each was contacted in a 250 ml bottle with 200 ml of a test fluid either saturated with a carbon dioxide at 20° C. or containing 100 ppm hydrogen sulphide or having both CO2 and H2 S present in those amounts. The test fluid was treated with a 30% aqueous solution of the compound under test at 2, 10, 50 and 250 ppm except where indicated to the contrary. The coupon was subjected to a dynamic wheel test in which the bottle was mounted radially on the periphery of 650 mm diameter wheel which was rotated at about 40 rpm for 24 hours at 70° C. The weight loss was obtained, and also measured in a control experiment where no inhibitor was present. From this the % protection was calculated as % reduction in weight loss.
# Test fluid: 100 ml 3 wt% brine/100 ml Mentor 28 (Mentor®28 is a depolarised kerosene available from Exxon Chemical Company)
# (§2) Corrosives: Saturated CO2 +100 ppm H2 S
# [4] = Corrosion Test 2 (dynamic wheel test; 3 wt% brine; CO2 + H2S); settings: 24 h, 70° C.
# Protocol: as §1
# Test Fluid: 200 ml 3 wt% brine
# as §2
# [5] = Corrosion Test 3 (dynamic wheel test; 3 wt% brine + Mentor 28; CO2 only); settings: 24 h, 70° C.
# Protocol: as §1
# (§3) Test fluid: 100 ml 3 wt% brine+100 ml Mentor 28
# Corrosives: Saturated CO2 only
# [6] = Corrosion Test 4 (dynamic wheel test; 3 wt% brine + Mentor 28; H2S); settings: 24 h, 70° C.
# Protocol: as §1, §3
# Corrosives: 100 ppm H2 S (prior nitrogen purge)
# [7] = Film persistency corrosion test; settings: CO2 + H2S, 24 h, 70° C.
# Protocol: […] A test fluid made up of equal proportions of 3 wt% brine and Mentor 28 was used, saturated with CO2 and containing 100 ppm H2 S as corrosives. Coupons were used as described for the previous corrosion test. A coupon was first immersed in test fluid containing corrosives and the inhibitor under test for 1 hour, then rinsed for 1 hour in a similar test fluid containing no inhibitor and finally transferred to a further test fluid again containing no inhibitor in which the dynamic wheel test was carried out at 70° C. for 24 hours.
# [8] = Corrosion inhibition tests, constant concentration conditions (overall)
# Protocol: as §1
# [9] = 0.3 ml of 35 wt% IPA solution in 10 ml heptane, 30 minutes and 24 hours
# [10] = 0.3 ml of 35 wt% IPA solution in 10 ml water, observed after 30 minutes and 24 hours
SMILES,"SOLUBILITY IN: Water [1, 10]",Time to break emulsion [2],"Appearance after 30 mins, hydrocarbon [2]","Appearance after 30 mins, water [2]","% Protection ([3]; 2 ppm, 30% solution)","% Protection ([3]; 10 ppm, 30% solution)","% Protection ([3]; 50 ppm, 30% solution)","% Protection ([3]; 250 ppm, 30% solution)",% Protection ([4]; 2 ppm),% Protection ([4]; 10 ppm),% Protection ([4]; 50 ppm),% Protection ([4]; 250 ppm),% Protection ([5]; 2 ppm),% Protection ([5]; 10 ppm),% Protection ([5]; 250 ppm),% Protection ([6]; 2 ppm),% Protection ([6]; 10 ppm),% Protection ([6]; 50 ppm),% Protection ([6]; 250 ppm),% Protection ([7]; 500 ppm),further results
c1ccc(CNCCc2ccccn2)cc1 [Example 8],S,> 30 min,clear,hazy,21%,72%,81%,81%,37%,69%,75%,85%,13%,32%,37%,8%,12%,40%,55%,19%,"SOLUBILITY IN: Heptane [1, 9]: S; % Protection ([3]; 2 ppm, * active material added as undiluted compound): 46%; % Protection ([3]; 10 ppm, * active material added as undiluted compound): 53%; % Protection ([3]; 50 ppm, * active material added as undiluted compound): 88%; % Protection ([3]; 250 ppm, * active material added as undiluted compound): 97%; % Protection ([5]; 50 ppm): 34%; % Protection ([7]; 1000 ppm): 22%; % Protection ([7]; 5000 ppm): 24%"
CCCCCCCCCCCCN(CCc1ccccn1)CCc1ccccn1 [Example 19],S,> 30 min,hazy,hazy,16%,71%,77%,86%,,,,,,,,2%,57%,,57%,,"SOLUBILITY IN: Heptane [1, 9]: S; performance of 2:1 derivatives compared with 1:1 derivatives [8]: tended to perform less well than 1:1 derivatives"
c1ccc(CN(CCc2ccccn2)CCc2ccccn2)cc1 [Example 20],S,1 min,clear,clear,24%,25%,63%,81%,51%,63%,75%,91%,,,,,,,,,"SOLUBILITY IN: Heptane [1, 9]: S; performance of 2:1 derivatives compared with 1:1 derivatives [8]: tended to perform less well than 1:1 derivatives"
CCCCCCNCCc1ccncc1 [Example 22],,1 min,clear,clear,41%,67%,81%,87%,11%,9%,41%,74%,9%,5%,7%,8%,50%,67%,67%,19%,SOLUBILITY IN: Brine [1]: S; SOLUBILITY IN: Heptane [1]: S; SOLUBILITY IN: Water [1]: S; % Protection ([5]; 50 ppm): 13%; % Protection ([7]; 1000 ppm): 20%; % Protection ([7]; 5000 ppm): 23%
CCCCCCCCCCCCNCCc1ccncc1 [Example 25],S,> 30 min,hazy,hazy,28%,53%,88%,96%,5%,44%,79%,94%,10%,6%,27%,11%,17%,57%,78%,17%,"SOLUBILITY IN: Heptane [1, 9]: S; Emulsion thickness after 30 mins [2]: 0.2; % Protection ([5]; 50 ppm): 21%; % Protection ([7]; 1000 ppm): 15%; % Protection ([7]; 5000 ppm): 20%"
CCCCCCCCCCCCCCCCCCNCCc1ccncc1 [Example 28],S,> 30 min,hazy,clear,8%,23%,48%,87%,11%,94%,96%,95%,8%,12%,9%,2%,3%,49%,56%,16%,Emulsion thickness after 30 mins [2]: 4.0; % Protection ([7]; 1000 ppm): 16%; % Protection ([7]; 5000 ppm): 23%
CCCCCCN(CCc1ccncc1)CCc1ccncc1 [Example 38],,1 min,clear,clear,2%,64%,79%,80%,,,,,,,,,,,,,performance of 2:1 derivatives compared with 1:1 derivatives [8]: tended to perform less well than 1:1 derivatives
CCCCCCCCCCCCN(CCc1ccncc1)CCc1ccncc1 [Example 39],,> 30 min,hazy,hazy,26%,70%,89%,89%,41%,65%,78%,87%,9%,5%,15%,3%,26%,64%,85%,20%,Emulsion thickness after 30 mins [2]: 0.1; % Protection ([7]; 1000 ppm): 24%; % Protection ([7]; 5000 ppm): 33%; performance of 2:1 derivatives compared with 1:1 derivatives [8]: tended to perform less well than 1:1 derivatives
